Measurements as given in ChEMBL document CHEMBL5584339, “Design, Synthesis, and Evaluation of the Antitubercular Activity of 5-Phenyl Substituted-5, 6-dihydropyrido[2, 3-d]pyrimidine-4, 7(3H, 8H)-dione Compounds” (J Med Chem, 2024).
Values after ≈ are worked out from the molar mass of the structure shown. Active and inactive are the calls of the source. No cut-off for these calls is given here.

Legend:
[1] = tested on: Mycobacterium tuberculosis; assay: Antitubercular activity against Mycobacterium tuberculosis H37Rv incubated for 7 days by alamar blue assay; type: functional; settings: 168 h, time 7 day
[2] = Cytotoxicity against african green monkey Vero cells incubated for 48 hrs by CCK8 assay; type: toxicity, cell-based, Chlorocebus sabaeus
[3] = Selectivity index, ratio of IC50 for african green monkey Vero cells to IC50 for Mycobacterium tuberculosis H37Rv; type: toxicity; settings: read-out: Ratio IC50
Mycobacterium marinum [4] = assay: Antitubercular activity against Mycobacterium marinum infected in adult zebrafish assessed as reduction in bacterial count by measuring CFU at 100 uM measured over 10 days; type: functional; settings: time 10 day
Mycobacterium marinum [5] = assay: Antitubercular activity against Mycobacterium marinum infected in adult zebrafish assessed as reduction in bacterial count by measuring CFU at 400 uM measured over 10 days; type: functional; settings: time 10 day
[6] = Cytotoxicity against HK-2 cells incubated for 48 hrs by CCK8 assay; type: toxicity, cell-based; settings: human
[7] = target: Voltage-gated inwardly rectifying potassium channel KCNH2 (Homo sapiens, UniProt Q12809); assay: Inhibition of human ERG expressed in HEK293 cells by whole cell manual patch clamp method; type: toxicity, cell-based
Sequence of Voltage-gated inwardly rectifying potassium channel KCNH2 (Q12809 whole entry): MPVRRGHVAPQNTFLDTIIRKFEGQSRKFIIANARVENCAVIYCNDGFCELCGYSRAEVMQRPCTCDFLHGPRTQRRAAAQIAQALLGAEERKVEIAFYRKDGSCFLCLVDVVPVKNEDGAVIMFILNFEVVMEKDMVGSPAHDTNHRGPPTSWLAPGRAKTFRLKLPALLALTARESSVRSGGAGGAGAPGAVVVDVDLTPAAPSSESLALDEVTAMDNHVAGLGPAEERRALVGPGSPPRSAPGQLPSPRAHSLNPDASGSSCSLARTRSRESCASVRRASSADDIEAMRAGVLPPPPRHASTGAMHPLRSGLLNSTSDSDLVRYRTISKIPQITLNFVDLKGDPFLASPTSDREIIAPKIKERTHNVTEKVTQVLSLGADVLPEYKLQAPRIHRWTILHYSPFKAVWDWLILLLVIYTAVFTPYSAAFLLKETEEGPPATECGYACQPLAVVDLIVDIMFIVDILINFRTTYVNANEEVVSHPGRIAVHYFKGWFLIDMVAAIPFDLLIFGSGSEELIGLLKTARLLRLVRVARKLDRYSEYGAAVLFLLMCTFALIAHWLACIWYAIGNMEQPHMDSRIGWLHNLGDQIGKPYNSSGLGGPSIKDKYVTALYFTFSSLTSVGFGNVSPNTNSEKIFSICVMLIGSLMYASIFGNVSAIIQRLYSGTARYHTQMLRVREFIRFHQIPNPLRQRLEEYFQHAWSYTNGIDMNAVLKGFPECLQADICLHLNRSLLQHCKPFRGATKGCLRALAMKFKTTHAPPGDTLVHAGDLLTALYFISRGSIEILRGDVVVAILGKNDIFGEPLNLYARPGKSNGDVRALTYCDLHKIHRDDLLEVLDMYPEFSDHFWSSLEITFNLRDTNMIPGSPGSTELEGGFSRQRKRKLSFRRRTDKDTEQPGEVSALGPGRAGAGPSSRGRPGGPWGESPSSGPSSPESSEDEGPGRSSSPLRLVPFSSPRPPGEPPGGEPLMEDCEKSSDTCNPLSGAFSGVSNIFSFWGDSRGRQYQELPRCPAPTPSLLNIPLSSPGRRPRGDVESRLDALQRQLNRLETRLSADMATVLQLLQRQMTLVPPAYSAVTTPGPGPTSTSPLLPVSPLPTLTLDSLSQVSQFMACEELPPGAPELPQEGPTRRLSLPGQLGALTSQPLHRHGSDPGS

[8] = Metabolic stability in mouse liver microsomes assessed as substrate remaining at 2 uM preincubated for 60 mins followed by NADPH addition and measured upto 60 mins by LC-MS analysis; type: ADME, Microsome; settings: time < 120 min, read-out: Stability
[9] = Metabolic stability in mouse liver microsomes assessed as half-life at 2 uM preincubated for 60 mins followed by NADPH addition and measured upto 60 mins by LC-MS analysis; type: ADME, Microsome; settings: time < 120 min
[10] = Metabolic stability in mouse liver microsomes assessed as intrinsic clearance per mg protein at 2 uM preincubated for 60 mins followed by NADPH addition and measured upto 60 mins by LC-MS analysis; type: ADME, Microsome; settings: time < 120 min, read-out: CLH
[11] = Metabolic stability in human liver microsomes assessed as substrate remaining at 2 uM preincubated for 60 mins followed by NADPH addition and measured upto 60 mins by LC-MS analysis; type: ADME, Microsome; settings: time < 120 min, read-out: Stability
[12] = Metabolic stability in human liver microsomes assessed as half-life at 2 uM preincubated for 60 mins followed by NADPH addition and measured upto 60 mins by LC-MS analysis; type: ADME, Microsome; settings: time < 120 min
[13] = Metabolic stability in human liver microsomes assessed as intrinsic clearance per mg protein at 2 uM preincubated for 60 mins followed by NADPH addition and measured upto 60 mins by LC-MS analysis; type: ADME, Microsome; settings: time < 120 min, read-out: CLH
[14] = Observed clearance in BALB/c mouse at 5 mg/kg, iv measured upto 24 hrs by LC-MS/MS analysis; type: ADME, organism-based; settings: in vivo
[15] = Half-life in BALB/c mouse at 5 mg/kg, iv measured upto 24 hrs by LC-MS/MS analysis; type: ADME, organism-based; settings: in vivo
[16] = Half-life in BALB/c mouse at 30 mg/kg, po measured upto 24 hrs by LC-MS/MS analysis; type: ADME, organism-based; settings: in vivo
[17] = Tmax in BALB/c mouse at 30 mg/kg, po measured upto 24 hrs by LC-MS/MS analysis; type: ADME, organism-based; settings: in vivo
[18] = Initial plasma concentration in BALB/c mouse at 5 mg/kg, iv measured upto 24 hrs by LC-MS/MS analysis; type: ADME, organism-based
[19] = Cmax in BALB/c mouse at 30 mg/kg, po measured upto 24 hrs by LC-MS/MS analysis; type: ADME, organism-based; settings: in vivo
[20] = AUClast in BALB/c mouse at 5 mg/kg, iv measured upto 24 hrs by LC-MS/MS analysis; type: ADME, organism-based; settings: in vivo
[21] = AUClast in BALB/c mouse at 30 mg/kg, po measured upto 24 hrs by LC-MS/MS analysis; type: ADME, organism-based; settings: in vivo
[22] = AUCinfinity in BALB/c mouse at 5 mg/kg, iv measured upto 24 hrs by LC-MS/MS analysis; type: ADME, organism-based; settings: in vivo
[23] = AUCinfinity in BALB/c mouse at 30 mg/kg, po measured upto 24 hrs by LC-MS/MS analysis; type: ADME, organism-based; settings: in vivo
[24] = Observed extrapolated AUC in BALB/c mouse at 5 mg/kg, iv measured upto 24 hrs by LC-MS/MS analysis; type: ADME, organism-based; settings: in vivo
[25] = Observed extrapolated AUC in BALB/c mouse at 30 mg/kg, po measured upto 24 hrs by LC-MS/MS analysis; type: ADME, organism-based; settings: in vivo
[26] = Observed mean residence time infinity in BALB/c mouse at 5 mg/kg, iv measured upto 24 hrs by LC-MS/MS analysis; type: ADME, organism-based; settings: in vivo
[27] = Observed mean residence time infinity in BALB/c mouse at 30 mg/kg, po measured upto 24 hrs by LC-MS/MS analysis; type: ADME, organism-based; settings: in vivo
[28] = Dose normalized AUClast in BALB/c mouse at 5 mg/kg, iv measured upto 24 hrs by LC-MS/MS analysis; type: ADME, organism-based; settings: in vivo
[29] = Dose normalized AUClast in BALB/c mouse at 30 mg/kg, po measured upto 24 hrs by LC-MS/MS analysis; type: ADME, organism-based; settings: in vivo
[30] = Observed volume of distribution at steady state in BALB/c mouse at 5 mg/kg, iv measured upto 24 hrs by LC-MS/MS analysis; type: ADME, organism-based; settings: in vivo, read-out: Vdss
[31] = Oral bioavailability in BALB/c mouse at 30 mg/kg measured upto 24 hrs by LC-MS/MS analysis; type: ADME, organism-based; settings: in vivo
Mycobacterium marinum [32] = assay: Antitubercular activity against Mycobacterium marinum infected in zebrafish larvae assessed as increase survival rate at 12.5 to 200 uM measured over 10 days by qPCR analysis; type: functional, organism-based; settings: dose 12.5-200 µM, time 10.0 day
Mycobacterium marinum [33] = assay: Antitubercular activity against Mycobacterium […] assessed as bactericidal effect by measuring colony forming unit at 200 uM measured over 10 days; type: functional; settings: time 10 day
Mycobacterium marinum [34] = assay: Antitubercular activity against Mycobacterium […] assessed as bactericidal effect by measuring colony forming unit at 100 uM measured over 10 days; type: functional; settings: time 10 day
Mycobacterium marinum [35] = assay: Antitubercular activity against Mycobacterium marinum infected in adult zebrafish assessed as reduction in bacterial count by measuring CFU at 50 uM measured over 10 days; type: functional; settings: time 10 day
Mycobacterium marinum [36] = assay: Antitubercular activity against Mycobacterium marinum infected in adult zebrafish assessed as reduction in bacterial count by measuring CFU at 200 uM measured over 10 days; type: functional; settings: time 10 day
[37] = Stability in mouse plasma by MS analysis; type: ADME, cell-free
[38] = tested on: Mycobacterium tuberculosis; assay: Binding affinity to Mycobacterium tuberculosis AccD5 at 10 uM by SPR analysis

Structure (SMILES)	MIC [1]	IC50 at 48 h [2]	Activity (Mycobacterium marinum [4])	IC50 at 48 h [6]	IC50 [7]	remaining at 1 h, 2 µM [8]	half-life at 2 µM [9]	microsomal CLint at 2 µM [10]	remaining at 1 h, 2 µM [11]	half-life at 2 µM [12]	microsomal CLint at 2 µM [13]	clearance [14]	half-life [15]	half-life [16]	Tmax [17]	C0 at 24 h [18]	Cmax [19]	AUC(0-t) at 24 h [20]	AUC(0-t) at 24 h [21]	AUC(0-inf) [22]	further results
CO[C@H]1/C=C/O[C@@]2(C)Oc3c(C)c(O)c4c(O)c(c(/C=N/N5CCN(C)CC5)c(O)c4c3C2=O)NC(=O)/C(C)=C\C=C\[C@H](C)[C@H](O)[C@@H](C)[C@@H](O)[C@@H](C)[C@H](OC(C)=O)[C@@H]1C [RIFAMPIN]	0.02 µg/mL (≈ 0.0243 µM)	> 100 µg/mL	4 10^4CFU	–	–	–	–	–	–	–	–	–	–	–	–	–	–	–	–	–	selectivity ratio [3]: > 5000; Activity (Mycobacterium marinum [5]): 1.5 10^2CFU
CCCSc1nc2c(c(=O)[nH]1)[C@@H](c1ccc(OC)cc1)CC(=O)N2	0.06 µg/mL (≈ 0.174 µM)	> 64 µg/mL	8 10^3CFU	32.5 µg/mL (≈ 94 µM)	24.4 µM	88.5%	6.16 h	3.75 µL/min/mg	69.8%	2 h	11.5 µL/min/mg	0.673 mL/min/kg	7.01 h	5.14 h	0.5 h	45400 ng/mL	43300 ng/mL	116 µg·h/mL	410 µg·h/mL	125 µg·h/mL	AUC(0-inf) [23]: 424 µg·h/mL; %AUCextra [24]: 6.41%; %AUCextra [25]: 3.35%; MRT inf [26]: 7.8 h; MRT inf [27]: 6.85 h; AUClast/dose [28]: 23295 kg·ng·h/mL/mg; AUClast/dose [29]: 13676 kg·ng·h/mL/mg; Vd [30]: 0.312 L/kg; bioavailability [31]: 56.7%; Activity (Mycobacterium marinum [32]): Active; Activity (Mycobacterium marinum [33]): <80 CFU; Activity (Mycobacterium marinum [34]): <80 CFU; Activity (Mycobacterium marinum [35]): 2 10^2CFU; Activity (Mycobacterium marinum [36]): 1.9 10^5CFU
CCCSc1nc2c(c(=O)[nH]1)[C@@H](c1ccc(OC)cc1[N+](=O)[O-])CC(=O)N2	3 µg/mL (≈ 7.68 µM)	> 64 µg/mL	2.5 10^3CFU	41.1 µg/mL (≈ 105 µM)	> 30 µM	86.2%	5.72 h	4.04 µL/min/mg	83.3%	3.57 h	6.47 µL/min/mg	0.5 mL/min/kg	13.1 h	7.95 h	0.417 h	32300 ng/mL	54000 ng/mL	131 µg·h/mL	595 µg·h/mL	175 µg·h/mL	AUC(0-inf) [23]: 669 µg·h/mL; %AUCextra [24]: 25.2%; %AUCextra [25]: 11.2%; MRT inf [26]: 16.4 h; MRT inf [27]: 10.1 h; AUClast/dose [28]: 26110 kg·ng·h/mL/mg; AUClast/dose [29]: 19820 kg·ng·h/mL/mg; Vd [30]: 0.488 L/kg; bioavailability [31]: 63.8%; Stability [37]: Stable; Activity (Mycobacterium marinum [32]): Active; Activity (Mycobacterium marinum [33]): <10 CFU; Activity (Mycobacterium marinum [34]): 80 CFU; Activity (Mycobacterium marinum [35]): 1 10^2CFU; Activity (Mycobacterium marinum [36]): 1.6 10^4CFU; Activity [38]: Active
